Results taken from ChEMBL document CHEMBL4396913, “Synthesis and biological evaluation of hybrid quinolone-based quaternary ammonium antibacterial agents” (Eur J Med Chem, 2019).
≈ marks a conversion by molar mass, not a printed value.

Legend:
[1] = Lipophilicity, log k of the compound at 100 ug/ml by micellar electrokinetic chromatography; assay type: physicochemical
[2] = system: Staphylococcus aureus; assay: Antibacterial activity against Staphylococcus aureus ATCC 6538 cultured in MH medium assessed as reduction in bacterial growth incubated for 48 hrs by microbroth dilution method; assay type: functional; conditions: ATCC 6538, 48 h
[3] = system: Staphylococcus aureus; assay: Bactericidal activity against Staphylococcus aureus ATCC 6538 cultured in MH medium assessed as reduction in bacterial survival incubated for 48 hrs by microbroth dilution method; assay type: functional; conditions: ATCC 6538, 48 h
[4] = system: Staphylococcus aureus; assay: Antibacterial activity against methicillin resistant Staphylococcus aureus N315 cultured in MH medium assessed as reduction in bacterial growth incubated for 48 hrs by microbroth dilution method; assay type: functional; conditions: N315, 48 h
[5] = system: Staphylococcus aureus; assay: Bactericidal activity against methicillin resistant Staphylococcus aureus N315 cultured in MH medium assessed as reduction in bacterial survival incubated for 48 hrs by microbroth dilution method; assay type: functional; conditions: N315, 48 h
[6] = system: Staphylococcus epidermidis; assay: Antibacterial activity against Staphylococcus epidermidis ATCC 14990 cultured in MH medium assessed as reduction in bacterial growth incubated for 48 hrs by microbroth dilution method; assay type: functional; conditions: ATCC 14990, 48 h
[7] = system: Staphylococcus epidermidis; assay: Bactericidal activity against Staphylococcus epidermidis ATCC 14990 cultured in MH medium assessed as reduction in bacterial survival incubated for 48 hrs by microbroth dilution method; assay type: functional; conditions: ATCC 14990, 48 h
[8] = system: Enterococcus hirae; assay: Antibacterial activity against Enterococcus hirae ATCC 1052 cultured in BHI medium assessed as reduction in bacterial growth incubated for 48 hrs by microbroth dilution method; assay type: functional; conditions: ATCC 1052, 48 h
[9] = system: Enterococcus hirae; assay: Bactericidal activity against Enterococcus hirae ATCC 1052 cultured in BHI medium assessed as reduction in bacterial survival incubated for 48 hrs by microbroth dilution method; assay type: functional; conditions: ATCC 1052, 48 h
[10] = system: Bacillus spizizenii; assay: Antibacterial activity against Bacillus subtilis ATCC 6633 cultured in MH medium assessed as reduction in bacterial growth incubated for 48 hrs by microbroth dilution method; assay type: functional; conditions: ATCC 6633, 48 h
[11] = system: Bacillus spizizenii; assay: Bactericidal activity against Bacillus subtilis ATCC 6633 cultured in MH medium assessed as reduction in bacterial survival incubated for 48 hrs by microbroth dilution method; assay type: functional; conditions: ATCC 6633, 48 h
[12] = system: Escherichia coli; assay: Antibacterial activity against Escherichia coli ATCC 8739 cultured in MH medium assessed as reduction in bacterial growth incubated for 48 hrs by microbroth dilution method; assay type: functional; conditions: ATCC 8739, 48 h
[13] = system: Escherichia coli; assay: Bactericidal activity against Escherichia coli ATCC 8739 cultured in MH medium assessed as reduction in bacterial survival incubated for 48 hrs by microbroth dilution method; assay type: functional; conditions: ATCC 8739, 48 h
[14] = system: Pseudomonas aeruginosa; assay: Antibacterial activity against Pseudomonas aeruginosa ATCC 9027 cultured in MH medium assessed as reduction in bacterial growth incubated for 48 hrs by microbroth dilution method; assay type: functional; conditions: ATCC 9027, 48 h
[15] = system: Pseudomonas aeruginosa; assay: Bactericidal activity against Pseudomonas aeruginosa ATCC 9027 cultured in MH medium assessed as reduction in bacterial survival incubated for 48 hrs by microbroth dilution method; assay type: functional; conditions: ATCC 9027, 48 h
[16] = system: Proteus vulgaris; assay: Antibacterial activity against Proteus vulgaris NCTC 4635 cultured in MH medium assessed as reduction in bacterial growth incubated for 48 hrs by microbroth dilution method; assay type: functional; conditions: NCTC 4635, 48 h
[17] = system: Proteus vulgaris; assay: Bactericidal activity against Proteus vulgaris NCTC 4635 cultured in MH medium assessed as reduction in bacterial survival incubated for 48 hrs by microbroth dilution method; assay type: functional; conditions: NCTC 4635, 48 h
[18] = system: Staphylococcus aureus; assay: Antibacterial activity against methicillin resistant Staphylococcus aureus 6347 cultured in MH medium assessed as reduction in bacterial growth incubated for 48 hrs by microbroth dilution method; assay type: functional; conditions: Staphylococcus aureus, 6347, 48 h
[19] = system: Staphylococcus aureus; assay: Bactericidal activity against methicillin resistant Staphylococcus aureus 6347 cultured in MH medium assessed as reduction in bacterial survival incubated for 48 hrs by microbroth dilution method; assay type: functional; conditions: Staphylococcus aureus, 6347, 48 h
[20] = system: Staphylococcus epidermidis; assay: Antibacterial activity against methicillin resistant Staphylococcus epidermidis ATCC 13199 cultured in MH medium assessed as reduction in bacterial growth incubated for 48 hrs by microbroth dilution method; assay type: functional; conditions: ATCC 13199, 48 h
[21] = system: Staphylococcus epidermidis; assay: Bactericidal activity against methicillin resistant Staphylococcus epidermidis ATCC 13199 cultured in MH medium assessed as reduction in bacterial survival incubated for 48 hrs by microbroth dilution method; assay type: functional; conditions: ATCC 13199, 48 h
[22] = system: Streptococcus pneumoniae; assay: Antibacterial activity against Streptococcus pneumoniae cultured in MH medium assessed as reduction in bacterial growth incubated for 48 hrs by microbroth dilution method; assay type: functional
[23] = system: Streptococcus pneumoniae; assay: Bactericidal activity against Streptococcus pneumoniae cultured in MH medium assessed as reduction in bacterial survival incubated for 48 hrs by microbroth dilution method; assay type: functional
[24] = system: Serratia marcescens; assay: Antibacterial activity against Serratia marcescens ATCC 12795 cultured in MH medium assessed as reduction in bacterial growth incubated for 48 hrs by microbroth dilution method; assay type: functional; conditions: ATCC 12795, 48 h
[25] = system: Serratia marcescens; assay: Bactericidal activity against Serratia marcescens ATCC 12795 cultured in MH medium assessed as reduction in bacterial survival incubated for 48 hrs by microbroth dilution method; assay type: functional; conditions: ATCC 12795, 48 h
[26] = system: HEK293; assay: Cytotoxicity against human HEK293 cells assessed as cell viability upto 20 uM incubated for 72 hrs by MTT assay; assay type: cell-based; conditions: hek293, 72 h
[27] = system: HEK293; assay: Cytotoxicity against human HEK293 cells assessed as changes in cell morphology upto 20 uM incubated for 72 hrs by MTT assay; assay type: cell-based; conditions: hek293, 72 h

Row | SMILES | log K [1] | MIC [2] [µg/mL] | MBC [3] [µg/mL] | MIC [4] [µg/mL] | MBC [5] [µg/mL] | MIC [6] [µg/mL] | MBC [7] [µg/mL] | MIC [8] [µg/mL] | MIC [10] [µg/mL] | MBC [11] [µg/mL] | MIC [12] [µg/mL] | MBC [13] [µg/mL] | MIC [14] [µg/mL] | MBC [15] [µg/mL] | MIC [16] [µg/mL] | MBC [17] [µg/mL] | MIC [18] [µg/mL] | MBC [19] [µg/mL] | MIC [20] [µg/mL] | MBC [21] [µg/mL] | further results
1 | C[C@@H]1CN(c2c(F)c(N)c3c(=O)c(C(=O)O)cn(C4CC4)c3c2F)C[C@H](C)N1 [SPARFLOXACIN] | 0.1161 | 0.125 (≈ 0.319 µM) | 0.25 (≈ 0.637 µM) | 0.125 (≈ 0.319 µM) | 0.125 (≈ 0.319 µM) | 0.125 (≈ 0.319 µM) | 0.125 (≈ 0.319 µM) | 32 (≈ 81.5 µM) | 0.063 (≈ 0.161 µM) | 0.063 (≈ 0.161 µM) | 0.016 (≈ 0.0408 µM) | 0.032 (≈ 0.0815 µM) | 0.125 (≈ 0.319 µM) | 0.125 (≈ 0.319 µM) | 0.004 (≈ 0.0102 µM) | 0.008 (≈ 0.0204 µM) | 0.063 (≈ 0.161 µM) | 0.063 (≈ 0.161 µM) | 0.032 (≈ 0.0815 µM) | 0.032 (≈ 0.0815 µM) | MBC [9]: 32 µg/mL (≈ 81.5 µM); MIC [22]: 0.25 µg/mL (≈ 0.637 µM); MBC [23]: 128 µg/mL (≈ 326 µM); MIC [24]: 0.5 µg/mL (≈ 1.27 µM); MBC [25]: 1 µg/mL (≈ 2.55 µM)
2 | CCn1cc(C(=O)O)c(=O)c2cnc(N3CCNCC3)nc21 [PIPEMIDIC ACID] | -0.1697 | 64 (≈ 211 µM) | 128 (≈ 422 µM) | 32 (≈ 105 µM) | 32 (≈ 105 µM) | 32 (≈ 105 µM) | 32 (≈ 105 µM) | > 512 | 2 (≈ 6.59 µM) | 2 (≈ 6.59 µM) | 2 (≈ 6.59 µM) | 2 (≈ 6.59 µM) | 8 (≈ 26.4 µM) | 8 (≈ 26.4 µM) | 0.004 (≈ 0.0132 µM) | 0.004 (≈ 0.0132 µM) | 32 (≈ 105 µM) | 32 (≈ 105 µM) | 32 (≈ 105 µM) | 64 (≈ 211 µM) | MIC [22]: > 512 µg/mL; MIC [24]: 2 µg/mL (≈ 6.59 µM); MBC [25]: 2 µg/mL (≈ 6.59 µM)
3 | CCn1cc(C(=O)O)c(=O)c2cc(F)c(N3CC[N+]4(CC3)CN3C(C)=CC(C)=C(C(=O)O)C3=N4)cc21.[Cl-] | -0.2721 | 64 | 128 | 128 | 128 | 64 | 128 | > 512 | 16 | 64 | 4 | 8 | 256 | > 512 | 0.25 | 0.5 | 64 | 128 | 32 | 32 | MIC [22]: > 512 µg/mL; MIC [24]: 64 µg/mL; MBC [25]: 128 µg/mL; Activity [26]: Non-Toxic; Activity [27]: Non-Toxic
